Reference: patent publication US10730889B2, “Amido spirocyclic amide and sulfonamide derivatives” (Forma TM, LLC, priority 2012, dated 2020)
Where two headings read alike, the source gives them in different places.

Test system: A2780 cells
Test: In-vitro cell proliferation assay (SRB, 72 hours)
Type: cell-based
Settings: Homo sapiens, A2780 cells, 72 hours, SRB, read-out: Cell Proliferation (IC50)

Row | Structure (SMILES) | IC50 (A2780, 72 h) | IC50
1 | O=C(NCC1CC12CCN(C(=O)c1ccc(Cn3cncn3)cc1)CC2)c1cc2ccncc2o1 (stereo not drawn) [Example 251, N-[[6-[4-(1,2,4-triazol-1-ylmethyl)benzoyl]-6-azaspiro[2.5]octan-2-yl]methyl]furo[2,3-c]pyridine-2-carboxamide] | 215 nM | 
2 | O=C(NCC1CC12CCN(C(=O)c1cccc(Cn3ccnc3)c1)CC2)c1cc2ccncc2o1 (stereo not drawn) [Example 252, N-[[6-[3-(imidazol-1-ylmethyl)benzoyl]-6-azaspiro[2.5]octan-2-yl]methyl]furo[2,3-c]pyridine-2-carboxamide] | 344 nM | 
3 | O=C(NCC1CC12CCN(C(=O)c1ccc(-n3ccnc3)cc1)CC2)c1cc2ccncc2o1 (stereo not drawn) [Example 253, N-[[6-(4-imidazol-1-ylbenzoy)-6-azaspiro[2.5]octan-2-yl]methyl]furo[2,3-c]pyridine-2-carboxamide] | 55.4 nM | 
4 | O=C(NCC1CC12CCN(C(=O)c1cc(C(F)(F)F)ccn1)CC2)c1cc2ccncc2o1 (stereo not drawn) [Example 256, N-[[6-[4-(trifluoromethyl]pyridine-2-carbonyl]6-azaspiro[2.5]octan-2-yl]methyl]furo[2,3-c]pyridine-2-carboxamide] | 596 nM | 
5 | O=C(NCC1CC12CCN(C(=O)c1ccc(C(F)(F)F)nc1)CC2)c1cc2ccncc2o1 (stereo not drawn) [Example 257, N-[[6-[6-(trifluoromethyl]pyndine-3-carbonyl]-6-azaspiro[2.5]octan-2-yl]methyl]furo[2,3-c]pyridine-2-carboxamide] | 2000 nM | 
6 | NS(=O)(=O)c1ccc(C(=O)N2CCC3(CC2)CC3CNC(=O)c2cc3ccncc3o2)cc1 (stereo not drawn) [Example 259, N-[[6-(4-sulfamoylbenzoyl)-6-azaspiro[2.5]octan-2-yl]methyl]furo[2,3-c]pyridine-2-carboxamide] | 1200 nM | 
7 | O=C(NCC1CC12CCN(C(=O)c1ccc3cnccc3n1)CC2)c1cc2ccncc2o1 (stereo not drawn) [Example 262, N-[[6-(1,6-naphthyridine-2-carbonyl)-6-azaspiro[2.5]octan-2-yl]methyl]furo[2,3-c]pyridine-2-carboxamide] | 79.5 nM | 
8 | CC(=O)Nc1cccc(C(=O)N2CCC3(CC2)CC3CNC(=O)c2cc3ccncc3o2)c1 (stereo not drawn) [Example 264, N-[[6-(3-acetamidobenzoyl)-6-azaspiro[2.5]octan-2-yl]methyl]furo[2,3-c]pyridine-2-carboxamide] | 245 nM | 
9 | CC(=O)Nc1cnccc1C(=O)N1CCC2(CC1)CC2CNC(=O)c1cc2ccncc2o1 (stereo not drawn) [Example 265, N-[[6-(3-acetamidopyridine-4-carbonyl)-6-azaspiro[2.5]octan-2-yl]methyl]furo[2,3-c]pyridine-2-carboxamide] | 2000 nM | 
10 | O=C(NCC1CC12CCN(C(=O)c1ccc3cccnc3n1)CC2)c1cc2ccncc2o1 (stereo not drawn) [Example 271, N-[[6-(1,8-naphthyridine-2-carbonyl)-6-azaspiro[2.5]octan-2-yl]methyl]furo[2,3-c]pyridine-2-carboxamide] | 139 nM | 
11 | O=C(NCC1CC12CCN(C(=O)c1ccno1)CC2)c1cc2ccncc2o1 (stereo not drawn) [Example 272, N-[[6-(isoxazole-5-carbonyl)-6-azaspiro[2.5]octan-2-yl]methyl]furo[2,3-c]pyridine-2-carboxamide] | 2000 nM | 
12 | O=C(NCC1CC12CCN(C(=O)Cc1cccnc1)CC2)c1cc2cnccc2[nH]1 (stereo not drawn) [Example 277, N-[[6-[2-(3-pyridyl)acctyl]-6-azaspiro[2.5]octan-2-yl]methyl]-1H-pyrrolo[3,2-c]pyridine-2-carboxamide] | 755 nM | 
13 | O=C(NCC1CC12CCN(C(=O)Cc1ccncc1)CC2)c1cc2cnccc2[nH]1 (stereo not drawn) [Example 278, N-[[6-[2-(4-pyridyl)acetyl]-6-azaspiro[2.5]octan-2-yl]methyl]-1H-pyrrolo[3,2-c]pyridine-2-carboxamide] | 2000 nM | 
14 | Cn1nnc(-c2ccc(C(=O)N3CCC4(CC3)CC4CNC(=O)c3cc4ccncc4o3)cc2)n1 (stereo not drawn) [Example 280] | 6.83 nM | 
15 | O=C(Cc1ncccn1)N1CCC2(CC1)CC2CNC(=O)N1Cc2ccncc2C1 (stereo not drawn) [Example 286, N-[[6-(2-pyrimidin-2-ylacetyl)-6-azaspiro[2.5]octan-2-yl]methyl]-1,3-dihydropyrrolo[3,4-c]pyridine-2-carboxamide] |  | 27 nM
16 | Cn1nc(C(C)(C)C)cc1C(=O)N1CCC2(CC1)CC2CNC(=O)c1cc2ccncc2o1 (stereo not drawn) [Example 296, N-[[6-(5-tert-butyl-2-methyl-pyrazole-3-carbonyl)-6-azaspiro[2.5]octan-2-yl]methyl]furo[2,3-c]pyridine-2-carboxamide] | 10.8 nM | 
17 | CCn1nccc1C(=O)N1CCC2(CC1)CC2CNC(=O)c1cc2ccncc2o1 (stereo not drawn) [Example 297, N-[[6-(2-ethylpyrazole-3-carbonyl)-6-azaspiro[2.5]octan-2-yl]methyl]furo[2,3-c]pyridine-2-carboxamide] | 278 nM | 
18 | Cc1cnn(C(C)(C)C)c1C(=O)N1CCC2(CC1)CC2CNC(=O)c1cc2ccncc2o1 (stereo not drawn) [Example 298, N-[[6-(2-tert-butyl-4-methyl-pyrazole-3-carbonyl)-6-azaspiro[2.5]octan-2-yl]methyl]furo[2,3-c]pyridine-2-carboxamide] | 103 nM | 

Now from value to molecule, other results behind:

Row | IC50 (A2780, 72 h) | Structure (SMILES) | IC50
19 | 4.39 nM | O=C(NCC1CC12CCN(C(=O)c1ccc(CN3CCCC3)cc1)CC2)c1cc2ccncc2o1 (stereo not drawn) [Example 248, N-[[6-[4-(pyrrolidin-1-ylmethyl)benzoyl]-6-azaspiro[2.5]octan-2-yl]methyl]furo[2,3-c]pyridine-2-carboxamide] | 
20 | 935 nM | O=C(NCC1CC12CCN(C(=O)c1cccc(Cn3cncn3)c1)CC2)c1cc2ccncc2o1 (stereo not drawn) [Example 249, N-[[6-[3-(1,2,4-triazol-1-ylmethyl)benzoyl]-6-azaspiro[2.5]octan-2-yl]methyl]furo[2,3-c]pyridine-2-carboxamide] | 
21 | 2000 nM | O=C(NCC1CC12CCN(C(=O)c1ccccc1Cn1cncn1)CC2)c1cc2ccncc2o1 (stereo not drawn) [Example 250, N-[[6-[2-(1,2,4-triazol-1-ylmethyl)benzoyl]-6-azaspiro[2.5]octan-2-yl]methyl]furo[2,3-c]pyridine-2-carboxamide] | 
22 | 13 nM | O=C(NCC1CC12CCN(C(=O)c1ccc(-c3ncn[nH]3)cc1)CC2)c1cc2ccncc2o1 (stereo not drawn) [Example 254, N-[[6-(4-(1H-1,2,4-triazol-5-yl)benzoyl]-6-azaspiro[2.5]octan-2-yl]methyl]furo[2,3-c]pyridine-2-carboxamide] | 
23 | 179 nM | O=C(NCC1CC12CCN(C(=O)c1ccc(-n3ccnc3)nc1)CC2)c1cc2ccncc2o1 (stereo not drawn) [Example 255, N-[[6-(6-imidazol-1-ylpyridine-3-carbonyl)-6-azaspiro[2.5]octan-2-yl]methyl]furo[2,3-c]pyndine-2-carboxamide] | 
24 | 20.3 nM | O=C1COc2ccc(C(=O)N3CCC4(CC3)CC4CNC(=O)c3cc4ccncc4o3)cc2N1 (stereo not drawn) [Example 258, N-[[6-(3-oxo-4H-1,4-benzoxazine-6-carbonyl)-6-azaspiro[2.5]octan-2-yl]methyl]furo[2,3-c]pyridine-2-carboxamide] | 
25 | 2000 nM | O=C(NCC1CC12CCN(C(=O)c1ccccc1Cn1ccnc1)CC2)c1cc2ccncc2o1 (stereo not drawn) [Example 260, N-[[6-(2-(imidazol-1-ylmethyl)benzoyl]-6-azaspito[2.5]octan-2-yl]methyl]furo[2,3-c]pyridine-2-carboxamide] | 
26 | 15.8 nM | O=C(NCC1CC12CCN(C(=O)c1ccc3nccnc3c1)CC2)c1cc2ccncc2o1 (stereo not drawn) [Example 261, N-[[6-(quinoxaline-6-carbonyl)-6-azaspiro[2.5]octan-2-yl]methyl]furo[2,3-c]pyridine-2-carboxamide] | 
27 | 1470 nM | O=C(NCC1CC12CCN(C(=O)c1ccc3nonc3c1)CC2)c1cc2ccncc2o1 (stereo not drawn) [Example 266, N-[[6-(2,1,3-benzoxadiazole-5-carbonyl)-6-azaspiro[2.5]octan-2-yl]methyl]furo[2,3-c]pyridine-2-carboxamide] | 
28 | 2000 nM | O=C(NCC1CC12CCN(C(=O)c1ccnc3ncccc13)CC2)c1cc2ccncc2o1 (stereo not drawn) [Example 267, N-[[6-(1,8-naphthyridine-4-carbonyl)-6-azaspiro[2.5]octan-2-yl]methyl]furo[2,3-c]pyridine-2-carboxamide] | 
29 | 16 nM | O=C(NCC1CC12CCN(C(=O)c1cnc3ccccc3n1)CC2)c1cc2ccncc2o1 (stereo not drawn) [Example 269] | 
30 | 207 nM | CC(C)CC(=O)N1CCC2(CC1)CC2CNC(=O)c1cc2ccncc2o1 (stereo not drawn) [Example 273, N-[[6-(3-methylbutanoyl)-6-azaspiro[2.5]octan-2-yl]methyl]furo[2,3-c]pyridine-2-carboxamide] | 
31 | 2000 nM | CC(C)(C)OC(=O)N1CCC2(CC1)CC2CNC(=O)N1Cc2cn[nH]c2C1 (stereo not drawn) [Example 274, tert-Butyl 2-[(4,6-dihydro-1H-pyrrolo[3,4-c]pyrazole-5-carbonylamino)methyl]-6-azaspiro[2.5]octane-6-carboxylate] | 
32 | 17.7 nM | CN1CCC(C)(CC(=O)N2CCC3(CC2)CC3CNC(=O)c2cc3ccncc3o2)CC1 (stereo not drawn) [Example 275, N-([6-[2-(1,4-dimethylpiperidin-4-yl)acetyl]-6-azaspiro[2.5]octan-1-yl]methyl)furo[2,3-c]pyridine-2-carboxamide] | 
33 | 18.5 nM | Cc1cc(C)c(C(=O)N2CCC3(CC2)CC3CNC(=O)c2cc3ccncc3o2)cn1 (stereo not drawn) [Example 281, N-[[6-(4,6-dimethylpyridine-3-carbonyl)-6-azaspiro[2.5]octan-2-yl)methyl]furo[2,3-c]pyridine-2-carboxamide] | 
34 | 12.1 nM | Cc1nn(C(C)(C)C)c(C)c1C(=O)N1CCC2(CC1)CC2CNC(=O)c1cc2ccncc2o1 (stereo not drawn) [Example 294, N-[[6-(1-tert-butyl-3,5-dimethyl-pyrazole-4-carbonyl)-6-azaspiro[2.5]octan-2-yl]methyl]furo[2,3-c]pyridine-2-carboxamide] | 
35 | 0.944 nM | Cc1nn(Cc2ccccc2)c(C)c1C(=O)N1CCC2(CC1)CC2CNC(=O)c1cc2ccncc2o1 (stereo not drawn) [Example 295, N-[[6-(1-benzyl-3,5-dimethyl-pyrazole-4-carbonyl)-6-azaspiro[2.5]octan-2-yl]methyl]furo[2,3-c]pyridine-2-carboxamide] | 
36 | 249 nM | Cc1cnn(C)c1C(=O)N1CCC2(CC1)CC2CNC(=O)c1cc2ccncc2o1 (stereo not drawn) [Example 299, N-[[6-(2,4-dimethylpyrazole-3-carbonyl)-6-azaspiro[2.5]octan-2-yl]methyl]furo[2,3-c]pyridine-2-carboxamide] | 
